# Patent publication US10695347B2, “Pyrimidine derivative and use thereof” (Hubei Bio-Pharmaceutical Industrial Technological Institute …, priority 2015, dated 2020)
# Where two headings read alike, the source gives them in different places.
# What was measured:
# Karpas299 cells = test: Suppression of Karpas299 cell proliferation (CellTiter-Glo); type: cell-based; settings: 3 days incubation, read-out: Inhibition activity on Karpas299 cells IC50
# Description: (§1) As the amount of ATP can indicate the number of living cells directly, the living cells in culture are able to be quantified by determining the ATP level. In our experiment, we use a living-cell testing kit to quantify the living cells, which utilizes UltraGlow luciferase to generate a stable glow signal in the presence of ATP which is produced by metabolism of living cells, such as respiration. Specifically, a reagent CellTiter-Glo™ was added into cell culture media, and then the luminescent intensity was determined to measure proliferation of cells, as the luminescent intensity is in direct proportion to the ATP level which correlates positively to the number of living cells. The test plate was tested with the Envision (PE).
# Cell media: RPMI-1640 medium, fetal calf serum (FCS), antibiotics (Penicillin-Streptomycin)
# Assay reagent: Cell Viability Assay Kit CellTiter-Glo
# (§2) Others: a 96-well plate, a 384-well plate, DMSO
# (§3) Step 3.1 Culturing test cells
# Karpas 299 cells were plated into a black 384-well plate, with 2500 cells in 45 μl cell suspension per well. The plate was placed in a carbon dioxide incubator overnight.
# (§4) Step 3.2 Preparation of the compounds to be tested
# Each compound to be tested was dissolved in DMSO at 10 mM as the stock solution, which was left in a nitrogen-gas tank for storage.
# After dilution of 10 μL stock solution (10 mM) into 2.5 mM as a starting working solution, 10 concentrations of the working solutions from 5 μM to 0.25 nM were obtained in duplicate by further dilution in 3-fold series with ECHO.
# Step 3.3 Mixing the compound with the test cells
# To each well of a new 96-well plate were added 49 μl medium and 1 μl of the compounds to be tested at individual working concentrations (10 concentrations in total). After oscillation,
# 5 μl of mixture in each well of the 96-well plate was transferred into corresponding wells in the 384-well plate in the step 3.1. The 384-well plate was incubated in the carbon dioxide incubator for 3 days.
# To each well of the 384-well plate was added […] reagent Promega CellTiter-Glo. and incubated at room temperature for 10 minutes to stabilize the luminescence signal. The results were read with the PerkinElmer Envision Multi-mode Plate Reader.
# ALK L1196M = ALK L1196M (Homo sapiens (Human), UniProt Q9UM73, L1196M); test: Inhibition of ALK L1196M kinase activity (Caliper mobility shift); type: biochemical
# Chain of ALK L1196M (Q9UM73 19-1620 L1196M): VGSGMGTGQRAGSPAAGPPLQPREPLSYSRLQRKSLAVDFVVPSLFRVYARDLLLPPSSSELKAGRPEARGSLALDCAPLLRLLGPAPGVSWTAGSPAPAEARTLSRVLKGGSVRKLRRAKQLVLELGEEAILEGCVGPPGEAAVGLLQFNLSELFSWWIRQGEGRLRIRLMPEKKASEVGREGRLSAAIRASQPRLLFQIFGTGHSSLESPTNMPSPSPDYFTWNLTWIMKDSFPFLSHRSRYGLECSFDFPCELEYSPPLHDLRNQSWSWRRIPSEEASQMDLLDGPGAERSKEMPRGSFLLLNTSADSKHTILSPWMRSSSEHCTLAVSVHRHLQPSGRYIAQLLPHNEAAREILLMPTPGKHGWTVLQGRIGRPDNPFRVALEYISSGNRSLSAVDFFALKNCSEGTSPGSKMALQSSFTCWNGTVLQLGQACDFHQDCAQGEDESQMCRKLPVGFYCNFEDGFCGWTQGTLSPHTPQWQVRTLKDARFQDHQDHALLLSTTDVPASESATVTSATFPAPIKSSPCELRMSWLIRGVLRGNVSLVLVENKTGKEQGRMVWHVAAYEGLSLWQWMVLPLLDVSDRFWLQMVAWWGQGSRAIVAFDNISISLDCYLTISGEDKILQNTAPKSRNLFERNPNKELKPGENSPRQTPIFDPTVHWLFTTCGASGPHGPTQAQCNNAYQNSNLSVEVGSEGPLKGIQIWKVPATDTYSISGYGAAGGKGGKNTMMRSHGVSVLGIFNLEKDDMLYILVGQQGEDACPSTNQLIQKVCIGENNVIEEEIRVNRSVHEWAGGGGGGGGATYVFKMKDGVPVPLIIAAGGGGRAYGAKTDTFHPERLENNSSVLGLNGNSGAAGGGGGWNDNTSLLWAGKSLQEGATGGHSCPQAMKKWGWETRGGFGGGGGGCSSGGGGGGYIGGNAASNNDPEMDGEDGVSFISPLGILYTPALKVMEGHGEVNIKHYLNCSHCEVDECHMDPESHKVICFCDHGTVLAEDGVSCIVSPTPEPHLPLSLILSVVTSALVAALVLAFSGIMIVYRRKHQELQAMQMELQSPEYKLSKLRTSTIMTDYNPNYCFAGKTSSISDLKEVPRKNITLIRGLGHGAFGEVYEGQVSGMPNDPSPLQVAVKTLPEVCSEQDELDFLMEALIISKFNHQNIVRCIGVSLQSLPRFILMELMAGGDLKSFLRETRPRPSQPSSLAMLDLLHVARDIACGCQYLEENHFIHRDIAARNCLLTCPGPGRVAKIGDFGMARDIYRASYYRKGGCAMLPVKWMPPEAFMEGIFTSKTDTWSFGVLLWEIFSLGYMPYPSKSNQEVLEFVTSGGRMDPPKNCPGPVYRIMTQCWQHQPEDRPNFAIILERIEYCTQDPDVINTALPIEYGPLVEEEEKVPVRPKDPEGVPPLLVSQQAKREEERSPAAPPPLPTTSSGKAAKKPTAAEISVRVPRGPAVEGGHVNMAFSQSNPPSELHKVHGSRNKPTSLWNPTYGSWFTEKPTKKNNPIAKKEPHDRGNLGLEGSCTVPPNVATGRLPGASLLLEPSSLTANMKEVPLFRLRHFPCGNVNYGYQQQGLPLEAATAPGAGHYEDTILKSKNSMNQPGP
# Description: (§5) Inhibition of Compound I Against ALK Kinase Activity
# (§6) • I. Preparation of 1× kinase buffer and stop buffer
# (§7) 1) 1× Kinase Buffer • 50 mM HEPES. pH 7.5 • 0.0015% Brij-35 • 10 mM MgCl2 • 2 mM DTT • 2) stop buffer • 100 mM HEPES, pH 7.5 • 0.015% Brij-35 • 0.2% Coating Reagent #3 • 50 mM EDTA
# (§8) 2. Prepare a Compound Solution to be Tested • Step 2.1 Dilute the compound to 50× of the final desired highest inhibitor concentration in reaction by 100% DMSO. Transfer 100 μl of this compound dilution to a well in a 96-well plate. For example, if desired highest inhibitor concentration is 1 μM, then prepare 50 μM of compound DMSO solution in this step.
# (§9) Step 2.2 Further dilute said compound dilution by 3-fold in series, thus obtain 10 concentrations.
# (§10) Step 2.3 Add 100 μl of 100% DMSO to two empty wells for no compound control and no enzyme control in the same 96-well plate. Mark the plate as source plate.
# (§11) Step 2.4 Prepare an intermediate plate
# (§12) Transfer 10 μl of each compound from the source plate to a new 96-well plate as the intermediate plate.
# (§13) Add 90 μl of 1× kinase buffer to each well of the intermediate plate. Mix the compounds in the intermediate plate for 10 min on a shaker.
# (§14) Transfer 5 μl of each well from the 96-well intermediate plate to a 384-well plate in duplicate. For example, A1 of the 96-well plate is transferred to A1 and A2 of the 384-well plate. A2 of the 96-well plate is transferred to A3 and A4 of the 384-well plate, and so on.
# (§15) 4.1 Prepare a 2.5× kinase solution
# (§16) Add kinase in 1× kinase base buffer, thus obtain the 2.5× kinase solution.
# (§17) 4.2 Prepare a 2.5× peptide solution
# (§18) 4.3 In each well of the assay plate obtained in step 3, there was 5 μL of the compound in 10% DMSO.
# (§19) 4.4 Transfer the 2.5× enzyme solution to the assay plate.
# (§20) 4.5 Incubate at room temperature for 10 min.
# (§21) 4.6 Transfer the 2.5× peptide solution to the assay plate.
# (§22) 4.7 Kinase reaction and stop
# (§23) Incubate at 28° C. for 20 min.
# (§24) Add 25 μl of stop buffer to stop reaction.
# (§25) Conversion rate of the kinase was read via the Caliper.
# (§26) 6.1 Copy conversion data from Caliper program.
# (§27) 6.2 Convert conversion values to inhibition values with the following formula: Percent inhibition=(max−conversion)/(max−min)*100
# (§28) where “max” stands for DMSO control; and “min” stands for low control.
# (§29) 6.3 Fit the data in XLfit excel add-in version 4.3.1 and obtain IC50 values according to the following formula: Y=Bottom+(Top−Bottom)/[…].
# ALK = ALK (Homo sapiens (Human), UniProt Q9UM73); test: Inhibition of ALK kinase activity (Caliper mobility shift); type: biochemical
# Chain of ALK (Q9UM73 19-1620): as the sequence (Q9UM73 19-1620 L1196M) above, with M1178L counted along it
# Description: as §5, §6, §7, §8, §9, §10, §11, §12, §13, §14, §15, §16, §17, §18, §19, §20, §21, §22, §23, §24, §25, §26, §27, §28, §29
# Ba/F3 EML4-ALK cells = test: Suppression of Ba/F3 EML4-ALK cell proliferation (CellTiter-Glo); type: cell-based; settings: 3 days incubation
# From the text: Cell media: RPMI-1640 medium, fetal calf serum (FCS), antibiotics (Penicillin-Streptomycin), IL-3, puromycin
# Cell line: Ba/F3 EML4-ALK
# Assay reagent: Cell Viability Assay Kit Celliter-Glo
# as §2
# as §1, with “in medium” for “in culture”, “a cell viability assay” for “a living-cell testing”, “was assayed by” for “was tested with”
# as §3
# Ba/F3 EML4-ALK cells were planted into a 384-well plate, with almost 300 cells per well. The plate was placed in a carbon dioxide incubator overnight.
# as §4
# 10 concentrations of the working solutions were obtained in duplicate by dilution in 3-fold series with BRAVO.
# Step 3.3 Mixing the compound to be tested with the test cells
# The compounds to be tested at individual working concentrations were transferred into corresponding wells in the 384-well plate in the step 3.1, with 5 μM as the initial working concentration, and then the 384-well plate was incubated in the carbon dioxide incubator for 3 days.
# To each well of the 384-well plate was added the reagent Promega CellTiter-Glo, and incubated at room temperature for 10 minutes to stabilize the luminescence signal. The results were read by the PerkinElmer Envision Multi-mode Plate Reader.
IC50 (Karpas299 cells) [nM],IC50 (Ba/F3 EML4-ALK cells) [nM],Molecule,"IC50 (Karpas299 cells; Homo sapiens, KARPAS-299, 72 h) [nM]",IC50 (ALK L1196M) [nM],IC50 (ALK) [nM],"IC50 (Ba/F3 EML4-ALK cells; Ba/F3 EML4-ALK, 72 h) [nM]"
–,–,"COc1cc(N2CCC(N(C)C)CC2)ccc1Nc1ncc(OC(F)F)c(Nc2ccccc2S(=O)(=O)C(C)C)n1 [Compound I-111, 5-(difluoromethoxy)-N^2-(4-(4-(dimethylamino)piperidin-1-yl)-2-methoxyphenyl)-N^4-(2-(isopropylsulfonyl)phenyl) pyrimidine-2,4-diamine]",< 50,< 1,< 1,< 20
–,–,COc1cc(N2CCC(N3CC(C)OC(C)C3)CC2)ccc1Nc1ncc(Cl)c(Nc2cccnc2S(=O)(=O)C(C)C)n1 (centres unmarked) [Compound I-12],50 to 100,1 to 10,1 to 10,< 20
–,–,CCOc1cc(N2CCC(N(C)C)CC2)ccc1Nc1ncc(Cl)c(Nc2cccnc2S(=O)(=O)C(C)C)n1 [Compound I-92],50 to 100,1 to 10,1 to 10,< 20
–,–,COc1cc(N2CCC(N3CC(C)OC(C)C3)CC2)ccc1Nc1ncc(Cl)c(Nc2ccccc2S(=O)(=O)C(C)C)n1 (centres unmarked) [Compound I-17],< 50,1 to 10,1 to 10,< 20
< 50,< 20,"COc1cc(N2CCN(C(C)C)CC2)c(C)cc1Nc1ncc(OC(F)F)c(Nc2ccccc2S(=O)(=O)C(C)C)n1 [Compound I-115, 5-(difluoromethoxy)-N^2-(4-(4-isopropylpiperazin-1-yl)-2-methoxy-5-methylphenyl)-N^4-(2-(isopropylsulfonyl)phenyl) pyrimidine-2,4-diamine]",–,< 1,< 1,–
–,–,COc1cc(N2CCN(C(C)C)CC2)c(C)cc1Nc1ncc(Cl)c(Nc2cccnc2S(=O)(=O)C(C)C)n1 [Compound I-88],50 to 100,1 to 10,1 to 10,20 to 100
< 50,< 20,"5-chloro-N^2-(2-isopropoxy-5-methyl-4-(1,2,3,6-tetrahydropiperidin-4-yl) phenyl)-N^4-(2-isopropylsulfonyl) pyridin-3-yl) pyrimidine-2,4-diamine [Compound I-90]",–,1 to 10,1 to 10,–
–,–,CC(C)Oc1cc(N2CCC(N(C)C)CC2)ccc1Nc1ncc(Cl)c(Nc2cccnc2S(=O)(=O)C(C)C)n1 [Compound I-91],50 to 100,1 to 10,1 to 10,< 20
–,–,"Cc1cc(Nc2ncc(Cl)c(Nc3ccccc3S(=O)(=O)C(C)C)n2)c(OC(F)F)cc1N1CCC(N(C)C)CC1 [Compound I-102, 5-chloro-N^2-(2-(difluoromethoxy)-4-(4-(dimethylamino)piperidin-1-yl)-5-methylphenyl)-N^4-(2-(isopropylsulfonyl)phenyl) pyrimidine-2,4-diamine]",50 to 100,< 1,1 to 10,< 20
–,–,"COc1cc(C2=CCN(C(C)C)CC2)ccc1Nc1ncc(Cl)c(Nc2cccnc2S(=O)(=O)C(C)C)n1 [Compound I-85, 5-chloro-N^2-(4-(1-isopropyl-1,2,3,6-tetrahydropyridin-4-yl)-2-methoxyphenyl)-N^4-(2-(isopropylsulfonyl)pyridin-3-yl) pyrimidine-2,4-diamine]",< 50,1 to 10,1 to 10,20 to 100
–,–,"COc1cc(N2CCC(N(C)C)CC2)c(C)cc1Nc1ncc(OC(F)F)c(Nc2ccccc2S(=O)(=O)C(C)C)n1 [Compound I-112, 5-(difluoromethoxy)-N^2-(4-(4-(dimethylamino)piperidin-1-yl)-2-methoxy-5-methylphenyl)-N^4-(2-(isopropylsulfonyl)phenyl) pyrimidine-2,4-diamine]",< 50,< 1,< 1,< 20
–,–,"COc1cc(C2=CCN(C(C)C)CC2)c(C)cc1Nc1ncc(Cl)c(Nc2cccnc2S(=O)(=O)C(C)C)n1 [Compound I-80, 5-chloro-N^2-(4-(1-isopropyl-1,2,3,6-tetrahydropyridin-4-yl)-2-methoxy-5-methylphenyl)-N^4-(2-(isopropylsulfonyl)pyridin-3-yl) pyrimidine-2,4-diamine]",< 50,1 to 10,1 to 10,20 to 100
–,–,COc1cc(N2CCC(N3CCC(N(C)C)CC3)CC2)ccc1Nc1ncc(Cl)c(Nc2ccsc2S(=O)(=O)C(C)C)n1 [Compound I-18],< 50,1 to 10,1 to 10,< 20
–,–,COc1cc(N2CCC(O)CC2)ccc1Nc1ncc(Cl)c(Nc2cccnc2S(=O)(=O)C(C)C)n1 [Compound I-9],< 50,1 to 10,1 to 10,20 to 100
–,–,COc1cc(N2CCC(N3CCOCC3)CC2)ccc1Nc1ncc(Cl)c(Nc2cccnc2S(=O)(=O)C(C)C)n1 [Compound I-7],< 50,1 to 10,1 to 10,< 20
–,–,COc1cc(N2CCC(N3CCN(C)CC3)CC2)ccc1Nc1ncc(Cl)c(Nc2cccnc2S(=O)(=O)C(C)C)n1 [Compound I-10],< 50,1 to 10,1 to 10,< 20

Molecule,IC50 (Karpas299 cells) [nM],IC50 (Ba/F3 EML4-ALK cells) [nM],"IC50 (Karpas299 cells; Homo sapiens, KARPAS-299, 72 h) [nM]",IC50 (ALK L1196M) [nM],IC50 (ALK) [nM],"IC50 (Ba/F3 EML4-ALK cells; Ba/F3 EML4-ALK, 72 h) [nM]"
COc1cc(CN2CCC(N(C)C)CC2)ccc1Nc1ncc(Cl)c(Nc2ccccc2S(=O)(=O)C(C)C)n1 [Compound I-110],< 50,< 20,–,1 to 10,1 to 10,–
